Test results from patent US20040224958A1, “Pyridopyrimidinone derivatives for treatment of neurodegenerative disease” (priority 2000, published 2004).
pIC50: −log10 of the molar value.

Legend:
[1] = target: cdc2/cyclinB (Homo sapiens, UniProt P06493); experiment: Cyclin-Dependent Kinase Assay cdc2/cyclinB
[2] = target: cdk2/cyclinA (Homo sapiens, UniProt P24941); experiment: Cyclin-Dependent Kinase Assay cdk2/cyclinA; details: cdk2/A IC50
[3] = target: Cdk5/p25 (Homo sapiens, UniProt Q00535); experiment: Cyclin-Dependent Kinase 5 High Throughput Screening (cdk5-HTS) Assay; assay type: biochemical; details: high throughput screen
Description: Cyclin-Dependent Kinase 5 High Throughput Screening (cdk5-HTS) Assay
Enzyme assays for IC50 determinations were performed in 96-Pierce Reacti-Bind™ White Opaque Glutatione Coated Plates (Cat. No. 15240B).
The total volume was 0.100 mL containing a final concentration of 50 mM TRIS (tris[hydroxymethyl]aminomethane) at pH 7.4, 50 mM NaCl, 10 mM MgCl2, 5 mM dithiothreitol, 20 μM ATP containing 16 μCi/mL of Redivue[y33P]ATP (Amersham Pharmacia Biotech Cat. No. AH9968), 1.0 μg/mL Cdk5/p25, 20 μg/mL GST-RbCOOH, and appropriate dilutions of a compound of the present invention. The reaction was started by adding[^33P]ATP, and the plate was shaken for 30 seconds, then incubated at room temperature for 30 minutes. The reaction was terminated by addition of 0.05 mL of 120 mM EDTA. The plate was kept at room temperature for 45 minutes to allow substrate to bind to the walls of the plate. The wells were then washed three times with 0.2 mL of 1×PBS. Once thoroughly dry, 0.140 mL of MicroScint™2O (Packard Bioscience Cat. No. 87-9081) cocktail was added to all wells. The incorporation of ^33P was determined with a beta plate counter (Packard Topcount).

[4] = target: cdk2/cyclinE (Homo sapiens, UniProt P24941); experiment: Cyclin-Dependent Kinase Assay cdk2/cyclinE; details: cdk2/E IC50
[5] = target: cdk4/D (Homo sapiens, UniProt P11802); experiment: Cyclin-Dependent Kinase 4 (cdk4) Assay; assay type: biochemical; details: read-out: cdk4/D IC50
Description: A typical assay, for instance, measures inhibitory activity against the cyclin D dependent kinase 4 enzyme (cdk4/D). […] The cdk4 assay was carried out as follows.
Cyclin-Dependent Kinase 4 (cdk4) Assay
All components except the ATP were added to the wells, and the plate was placed on a plate mixer for 2 minutes. The reaction was started by adding [^32P]ATP and the plate was incubated at 25° C. for 15 minutes. The reaction was terminated by addition of 0.1 mL of 20% trichloroacetic acid (TCA). The plate was kept at 4° C. for at least 1 hour to allow the substrate to precipitate. The wells were then washed five times with 0.2 mL of 10% TCA and ^32P incorporation was determined with a beta plate counter (Wallac Inc., Gaithersburg, Md.).

Chain of cdc2/cyclinB (P06493 whole entry): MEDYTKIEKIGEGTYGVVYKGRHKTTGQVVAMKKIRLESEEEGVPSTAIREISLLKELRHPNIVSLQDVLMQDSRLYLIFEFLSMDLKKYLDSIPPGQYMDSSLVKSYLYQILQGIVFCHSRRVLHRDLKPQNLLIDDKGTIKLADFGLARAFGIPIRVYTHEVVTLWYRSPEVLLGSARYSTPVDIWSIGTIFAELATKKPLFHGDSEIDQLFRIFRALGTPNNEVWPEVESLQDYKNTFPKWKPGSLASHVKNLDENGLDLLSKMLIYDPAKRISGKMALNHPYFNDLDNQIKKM
Chain of cdc2/cyclinB (P14635 whole entry, further chain): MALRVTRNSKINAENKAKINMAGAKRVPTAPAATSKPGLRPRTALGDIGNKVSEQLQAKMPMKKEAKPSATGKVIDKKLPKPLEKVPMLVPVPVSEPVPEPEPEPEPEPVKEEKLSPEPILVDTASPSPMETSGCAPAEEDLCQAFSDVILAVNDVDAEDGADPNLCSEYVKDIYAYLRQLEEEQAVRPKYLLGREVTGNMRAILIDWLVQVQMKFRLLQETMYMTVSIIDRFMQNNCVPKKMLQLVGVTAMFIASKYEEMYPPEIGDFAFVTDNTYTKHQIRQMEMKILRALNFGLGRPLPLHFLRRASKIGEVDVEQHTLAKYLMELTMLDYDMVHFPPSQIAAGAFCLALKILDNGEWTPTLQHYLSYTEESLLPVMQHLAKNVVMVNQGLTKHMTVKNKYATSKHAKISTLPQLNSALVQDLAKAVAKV
Chain of cdk4/D (P11802 whole entry): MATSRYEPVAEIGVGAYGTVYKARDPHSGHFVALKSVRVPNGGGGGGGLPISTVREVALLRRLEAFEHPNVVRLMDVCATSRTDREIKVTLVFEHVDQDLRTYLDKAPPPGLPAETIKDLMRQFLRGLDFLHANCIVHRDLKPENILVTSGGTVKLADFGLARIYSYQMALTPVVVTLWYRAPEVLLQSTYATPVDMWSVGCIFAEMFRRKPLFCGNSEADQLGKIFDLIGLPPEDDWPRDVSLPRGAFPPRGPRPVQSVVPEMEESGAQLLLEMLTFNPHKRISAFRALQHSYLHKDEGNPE
Chain of cdk4/D (P24385 whole entry, further chain): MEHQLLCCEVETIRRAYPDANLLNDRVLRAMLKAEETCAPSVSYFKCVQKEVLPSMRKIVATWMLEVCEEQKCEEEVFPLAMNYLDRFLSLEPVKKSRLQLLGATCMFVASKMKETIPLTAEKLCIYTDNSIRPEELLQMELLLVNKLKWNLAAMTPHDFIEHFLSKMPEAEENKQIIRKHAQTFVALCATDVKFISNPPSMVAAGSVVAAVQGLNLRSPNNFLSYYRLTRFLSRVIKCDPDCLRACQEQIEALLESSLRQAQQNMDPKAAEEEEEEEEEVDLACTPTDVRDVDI

| pIC50 [1] | pIC50 [2] | pIC50 [3] | pIC50 [4] | pIC50 [5] | Compound |
| --- | --- | --- | --- | --- | --- |
| 6.57 | 5.40 | 6.72 |  |  | CCCn1c(=O)ccc2cnc(Nc3ccc(OC(F)(F)F)cc3)nc21 [Example 362, 8-Propyl-2-(4-trifluoromethoxy-phenylamino)-8H-pyrido[2,3-d]pyrimidin-7-one] |
| 7.06 | 7.11 | 8.00 | 7.22 |  | CCC(C)n1c(=O)ccc2cnc(Nc3ccc(OC)c(F)c3)nc21 (stereo not shown) [Example 462, 8-sec-Butyl-2-(3-fluoro-4-methoxy-phenylamino)-8H-pyrido[2,3-d]pyrimidin-7-one] |
| 6.19 | 6.49 | 6.80 |  | 6.34 | O=c1ccc2cnc(Nc3ccc(C(F)(F)F)cc3)nc2n1CC1CC1 [Example 590, 8-Cyclopropylmethyl-2-(4-trifluoromethyl-phenylamino)-8H-pyrido[2,3-d]pyrimidin-7-one] |
| 6.55 | 6.12 | 7.09 | 6.62 |  | CCC(CC)n1c(=O)ccc2cnc(Nc3cc(OC)c(OC)c(OC)c3)nc21 [Example 501, 8-(1-Ethyl-propyl)-2-(3,4,5-trimethoxy-phenylamino)-8H-pyrido[2,3-d]pyrimidin-7-one] |
|  | 5.74 | 5.85 | 6.43 | 5.66 | CCCn1c(=O)ccc2cnc(Nc3cc(OC)cc(C(F)(F)F)c3)nc21 [Example 342, 2-(3-Methoxy-5-trifluoromethyl-phenylamino)-8-propyl-8H-pyrido[2,3-d]pyrimidin-7-one] |
| 5.89 | 6.15 | 6.24 | 6.72 |  | O=c1ccc2cnc(Nc3ccc(Br)c(C(F)(F)F)c3)nc2n1CC1CC1 [Example 589, 2-(4-Bromo-3-trifluoromethyl-phenylamino)-8-cyclopropylmethyl-8H-pyrido[2,3-d]pyrimidin-7-one] |
| 5.88 | 6.05 | 6.16 | 6.59 |  | CCCCn1c(=O)ccc2cnc(Nc3c(F)cc(F)cc3F)nc21 [Example 366, 8-Butyl-2-(2,4,6-trifluoro-phenylamino)-8H-pyrido[2,3-d]pyrimidin-7-one] |
| 6.40 | 6.20 | 6.92 |  | 6.51 | Cc1ccc(Nc2ncc3ccc(=O)n(C(C)C)c3n2)cc1NS(C)(=O)=O [Example 439, N-[5-(8-Isopropyl-7-oxo-7,8-dihydro-pyrido[2,3-d]pyrimidin-2-ylamino)-2-methyl-phenyl]-methanesulfonamide] |
| 5.72 |  | 6.37 | 5.85 | 5.70 | CCn1c(=O)ccc2cnc(Nc3ccc(C#N)c(C#N)c3)nc21 [Example 298, 4-(8-Ethyl-7-oxo-7,8-dihydro-pyrido[2,3-d]pyrimidin-2-ylamino)-phthalonitrile] |
| 6.34 | 6.01 | 6.28 | 6.28 |  | O=c1ccc2cnc(Nc3cc(Cl)c(O)c(Cl)c3)nc2n1CC(F)(F)F [Example 598, 2-(3,5-Dichloro-4-hydroxy-phenylamino)-8-(2,2,2-trifluoro-ethyl)-8H-pyrido[2,3-d]pyrimidin-7-one] |
| 6.28 |  | 6.43 | 6.42 | 6.68 | CCC(CC)n1c(=O)ccc2cnc(Nc3cc([N+](=O)[O-])ccc3F)nc21 [Example 504, 8-(1-Ethyl-propyl)-2-(2-fluoro-5-nitro-phenylamino)-8H-pyrido[2,3-d]pyrimidin-7-one] |
| 6.85 |  | 7.48 | 6.92 | 6.59 | CC(C)n1c(=O)ccc2cnc(Nc3ccc(F)c(Cl)c3)nc21 [Example 419, 2-(3-Chloro-4-fluoro-phenylamino)-8-isopropyl-8H-pyrido[2,3-d]pyrimidin-7-one] |
|  | 6.14 | 6.01 | 6.47 | 5.74 | CC(C)n1c(=O)ccc2cnc(Nc3ccc(O)c(CN4CCOCC4)c3)nc21 [Example 436, 2-(4-Hydroxy-3-morpholin-4-ylmethyl-phenylamino)-8-isopropyl-8H-pyrido[2,3-d]pyrimidin-7-one] |
| 6.15 | 6.34 | 6.64 | 6.49 |  | CCCn1c(=O)ccc2cnc(Nc3cccc(NC(C)=O)c3)nc21 [Example 353, N-[3-(7-Oxo-8-propyl-7,8-dihydro-pyrido[2,3-d]pyrimidin-2-ylamino)-phenyl]-acetamide] |
| 5.89 |  | 6.51 | 5.85 | 5.82 | CCC(C)n1c(=O)ccc2cnc(Nc3cc(C(F)(F)F)ccc3F)nc21 (stereo not shown) [Example 466, 8-sec-Butyl-2-(2-fluoro-5-trifluoromethyl-phenylamino)-8H-pyrido[2,3-d]pyrimidin-7-one] |
| 6.77 | 6.43 | 7.42 | 6.59 |  | CCC(C)n1c(=O)ccc2cnc(Nc3cccc(C(F)(F)F)c3)nc21 (stereo not shown) [Example 477, 8-sec-Butyl-2-(3-trifluoromethyl-phenylamino)-8H-pyrido[2,3-d]pyrimidin-7-one] |
| 5.59 |  | 6.05 | 5.62 | 5.62 | CC(C)n1c(=O)ccc2cnc(Nc3cc(C(F)(F)F)ccc3F)nc21 [Example 428, 2-(2-Fluoro-5-trifluoromethyl-phenylamino)-8-isopropyl-8H-pyrido[2,3-d]pyrimidin-7-one] |
| 6.26 | 5.96 | 6.62 | 6.17 |  | CCn1c(=O)ccc2cnc(Nc3cccc(C(F)(F)F)c3)nc21 [Example 305, 8-Ethyl-2-(3-trifluoromethyl-phenylamino)-8H-pyrido[2,3-d]pyrimidin-7-one] |
| 7.10 |  | 7.89 | 7.44 | 6.77 | CCC(CC)n1c(=O)ccc2cnc(Nc3ccc(F)c(C)c3)nc21 [Example 503, 8-(1-Ethyl-propyl)-2-(4-fluoro-3-methyl-phenylamino)-8H-pyrido[2,3-d]pyrimidin-7-one] |
| 6.72 | 6.47 | 7.35 |  | 6.47 | O=c1ccc2cnc(Nc3ccc(F)c(C(F)(F)F)c3)nc2n1C1CCCC1 [Example 534, 8-Cyclopentyl-2-(4-fluoro-3-trifluoromethyl-phenylamino)-8H-pyrido[2,3-d]pyrimidin-7-one] |
| 7.14 | 6.89 | 7.02 |  | 6.92 | Nc1c(Cl)cc(Nc2ncc3ccc(=O)n(C4CCCC4)c3n2)cc1Cl [Example 557, 2-(4-Amino-3,5-dichloro-phenylamino)-8-cyclopentyl-8H-pyrido[2,3-d]pyrimidin-7-one] |
| 5.43 |  | 6.06 | 5.64 | 5.48 | CCn1c(=O)ccc2cnc(Nc3cc([N+](=O)[O-])ccc3F)nc21 [Example 297, 8-Ethyl-2-(2-fluoro-5-nitro-phenylamino)-8H-pyrido[2,3-d]pyrimidin-7-one] |
| 5.70 |  | 5.96 | 5.51 | 6.60 | CCC(CC)n1c(=O)ccc2cnc(Nc3cc(F)c(NC(C)=O)c(Cl)c3)nc21 [Example 514, N-{2-Chloro4-[8-(1-ethyl-propyl)-7-oxo-7,8-dihydro-pyrido[2,3-d]pyrimidin-2-ylamino]-6-fluoro-phenyl}-acetamide] |
